These results are taken from patent publication US11628198B2, “Methods for prevention and treatment of acute renal injury” (Cornell University, priority 2008, dated 2023).

Marks after values point to notes of the source that are not given here. Non-standard residues stand in square brackets, D forms with d. No end group written: not given here.

One data set concerns CIN in patients. The following applies: 443 patients randomly assigned; cited from earlier work.
The subject of data set [1] is ARI caused by ischemia-reperfusion (I/R). The data set can be described thus: I/R model of ARI: BUN and serum creatinine. The following applies: 45 min ischemia and 24 h reperfusion; 3 mg/kg 30 min before ischemia and before reperfusion. The class given is in vivo, rat. Here is the method:
(§1) Sprague Dawley rats (250˜300 g) were assigned to four groups: (1) sham surgery group without I/R; (2) I/R+saline vehicle treatment; (3) I/R+SS-20 treatment; (4) I/R+SS-31 treatment. Each experimental group consisted of 8 rats. SS-20 and SS-31 (3 mg/kg, dissolved in saline) were administered to rats 30 min before ischemia and immediately before onset of reperfusion. The control rats were given saline alone on the same schedule.
(§2) Rats were anesthetized with a mixture of ketamine (90 mg/kg, i.p.) and xylazine (4 mg/kg, i.p.). The left renal vascular pedicle was occluded temporarily using a micro-clamp for 30 or 45 min. At the end of the ischemic period, reperfusion was established by removing of the clamp. At that time, the contralateral right kidney was removed. After 24 h reperfusion, animals were sacrificed and blood samples were obtained by cardiac puncture. Renal function was determined by blood urea nitrogen (BUN) and serum creatinine (BioAssay Systems DIUR-500 and DICT-500).
BUN and serum creatinine were assayed using kits from BioAssay Systems (DIUR-500 and DICT-500). […] The # indicates p<0.05 from the IR=saline group.

The subject of a further data set is renal mitochondria. As to the kind of experiment: I/R model: respiration of isolated renal mitochondria. Format: in vivo, rat. The note with it: after 45 min ischemia, pretreatment. Here is the method: Results. The effects of the aromatic-cationic peptides of the invention on a model of ARI caused by ischemia-reperfusion were investigated. Renal mitochondria were isolated in accordance with the procedures described above and oxygen consumption was measured.
State 3 respiration was initiated with the addition of ADP.

Data set [2] concerns ARI caused by ischemia-reperfusion (I/R). The data set can be described thus: I/R model: renal morphologic examination (H&E, PAS). Format: in vivo, rat. The note with it: 45 min ischemia and 24 h reperfusion. The procedure: as §1, §2
Renal Morphologic Examination: Kidneys were fixed in 10% neutral-buffered formalin and embedded in paraffin wax. Three micron sections were stained with hematoxylin-eosin (H&E) and periodic acid-Schiff (PAS) and analyzed by light microscopy. Lesions were scored using the following criteria: [1] mitosis and necrosis of individual cells; [2] necrosis of all cells in adjacent proximal convoluted tubules with survival of surrounding tubules; [3] necrosis confined to the distal third of the proximal convoluted tubule with a band of necrosis extending across the inner cortex; and [4] necrosis affecting all three segments of the proximal convoluted tubule.

The subject of data set [3] is ATP content in renal tissue. The data set can be described thus: I/R model: ATP content assay of kidney tissue. The class given is in vivo, rat. Here is the method:
as §1, §2
ATP Content Assay: The kidney tissue was immediately put into 10 ml 5% trichloroacetic acid with 10 mM DTT, 2 mM EDTA and cut into small pieces. The tissue was homogenized on ice, incubated for another 10 min, centrifuged for 10 min at 2000×g, and neutralized with 10N KOH to pH 7.6. After centrifugation for 10 min at 2000×g, aliquots of the resulting supernatant were stored at −80° C. ATP was measured by bioluminescence (ATP bioluminescent kit, Sigma, MO, USA).

Data set [4] concerns ARI caused by ischemia-reperfusion (I/R). As to the kind of experiment: I/R model: TUNEL assay for apoptosis. Format: in vivo, rat. The note with it: 30 min ischemia and 24 h reperfusion; 3 mg/kg. Here is the method:
as §1, §2
TUNEL Assay for Apoptosis: Renal tissue sections were deparaffinized and rehydrated by xylenes, graded alcohol series and deionized H2O, and then incubated in 20 μg/ml proteinase K for 20 min at RT. In situ cell death detection POD kit (Roche, IN, USA) was used according to the manufacturer's instructions. […]

Turning to `C[C@H](O)C(=O)Nc1c(I)c(C(=O)NC(CO)CO)c(I)c(C(=O)NC(CO)CO)c1I` [Iopamidol (Isovue 370), Iopamidol], the “incidence of CIN” value in the data set on CIN in patients is recorded as 8.2%.
As to F[dR]FK-NH2 [SS-20], in data set [1], the BUN is given as 130.7 ± 5.5# mg/dl and the “serum creatinine” value is 1.06 ± 0.11# mg/dl. Besides, the “renal mitochondrial oxygen consumption (state 3 respiration)” value with renal mitochondria is given as “significantly improved oxygen consumption”. For the same compound, in data set [2], the histopathological score result is given as “significantly improved histopathological score”; the “tubular cell injury (H&E, PAS)” value is “protected brush border and prevented necrosis in the proximal tubules”. The “ATP content in renal tissue” value in data set [3] (1 h reperfusion following 45 min ischemia, vs vehicle) is on record as “significantly higher”. Also, the “ATP content in renal tissue” value in data set [3] (end of 15 min ischemia) was “not altered”. For the same compound, in data set [4], the “TUNEL-positive cells in the medulla (tubular cell apoptosis)” value was “significantly prevented TUNEL-positive cells”.
